US5622948A, “Pyrrole pyridazine and pyridazinone anti-inflammatory agents” (Syntex (U.S.A.) Inc., priority 1994, dated 1997)
Several values for one entry are separate records, joined by “and”; a condition that tells them apart may be missing. Equal entries are not always repeated. Where two headings read alike, the source gives them in different places.

Legend:
[1] = biological target: T1, COX II (Homo sapiens, UniProt P35354); experiment: PGE2 production in human foreskin fibroblasts stimulated with IL-1 and PMA; format: cell-based; parameters: A 1.8 Kb DNA fragment containing the coding region of human COX II was generated by PCR; made in house; host or cells: Sf9 insect cells, baculovirus; conditions: read-out: COX II IC50, inhibition of PGE2 production
T1 sequence (P35354 18-604): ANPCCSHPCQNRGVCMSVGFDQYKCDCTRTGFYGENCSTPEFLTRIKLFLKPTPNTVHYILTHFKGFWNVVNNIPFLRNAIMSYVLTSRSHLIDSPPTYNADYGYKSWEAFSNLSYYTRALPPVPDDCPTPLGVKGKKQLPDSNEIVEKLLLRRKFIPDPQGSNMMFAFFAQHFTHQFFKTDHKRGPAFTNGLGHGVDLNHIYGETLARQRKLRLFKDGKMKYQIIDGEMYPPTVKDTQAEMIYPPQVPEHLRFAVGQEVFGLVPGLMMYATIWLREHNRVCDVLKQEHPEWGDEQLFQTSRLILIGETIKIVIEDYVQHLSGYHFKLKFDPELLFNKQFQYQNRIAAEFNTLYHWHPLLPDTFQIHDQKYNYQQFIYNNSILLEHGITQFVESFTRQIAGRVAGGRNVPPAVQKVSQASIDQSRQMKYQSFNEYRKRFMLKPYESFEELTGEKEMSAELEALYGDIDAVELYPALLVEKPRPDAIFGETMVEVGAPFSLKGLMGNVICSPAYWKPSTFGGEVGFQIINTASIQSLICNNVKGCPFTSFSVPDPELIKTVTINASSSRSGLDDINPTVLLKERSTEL
Description: (§1) A summary of activities of Compound (16) against COX I and COX II in cell-free enzyme preparations and whole cells is presented in Table 1. The following abbreviations are used: AA is arachidonic acid, IL-1 is interleukin 1, PMA is phorbol myristate acetate, A23187 is a calcium ionophore (Sigma), BSA is bovine serum albumin and LPS is a lipopolysaccharide (Sigma).
Human foreskin fibroblasts
30 min incubation with Compound (16)
16 hr admulation with IL-1 and PMA
washing, transfer to fresh media
(§2) EIA determination of PGE2
16 hr stimulation with IL-1 and PMA
RIA determination of PGE2

[2] = system: phenylquinone-induced writhing; experiment: Phenylquinone-induced Mouse Writhing Assay; format: in vivo; conditions: 20 or 60 minutes prior to phenylquinone
Description: Analgetic activity is determined by the Phenylquinone-induced Mouse Writhing Assay, Hendershot, et al., J. Pharmacol. Exp. Ther., 125:237-240 (1959). This assay is one of several acute assays which have been used to assess the analgesic activity of NSAIDs. At the appropriate time after test material administration, phenylquinone is injected intraperitoneally to mice, inducing a series of characteristic "writhing" responses, which are counted between 10 and 20 minutes after phenylquinone injection.
In this assay, Compound (16), suspended in SSV, was tested over the dose range of 1-100 mg/kg administered 20 or 60 minutes prior to phenylquinone challenge.

[3] = two week range finding toxicity study in cynomolgus monkeys; format: in vivo, cynomolgus monkey; conditions: 10, 30, 100 and 300 mg/kg daily, two weeks
Description: A two week range finding study in cynomolgus monkeys was carried out at daily doses of 10, 30, 100 and 300 mg/kg of Compound (16).

[4] = biological target: COX I (Homo sapiens, UniProt P23219); experiment: radiometric assay, COX I inhibition (human recombinant, baculovirus expressed, partially purified); format: biochemical; parameters: A 2 Kb fragment containing the coding region of COX I; made in house; host or cells: Sf9 insect cells, baculovirus (cDNA from Oxford Biomedical Research); conditions: 10 min incubation with compound; 45 sec incubation with 20 μM AA; separation of radioactive products; read-out: COX I IC50
COX I (Homo sapiens, UniProt P23219), sequence (P23219 24-599): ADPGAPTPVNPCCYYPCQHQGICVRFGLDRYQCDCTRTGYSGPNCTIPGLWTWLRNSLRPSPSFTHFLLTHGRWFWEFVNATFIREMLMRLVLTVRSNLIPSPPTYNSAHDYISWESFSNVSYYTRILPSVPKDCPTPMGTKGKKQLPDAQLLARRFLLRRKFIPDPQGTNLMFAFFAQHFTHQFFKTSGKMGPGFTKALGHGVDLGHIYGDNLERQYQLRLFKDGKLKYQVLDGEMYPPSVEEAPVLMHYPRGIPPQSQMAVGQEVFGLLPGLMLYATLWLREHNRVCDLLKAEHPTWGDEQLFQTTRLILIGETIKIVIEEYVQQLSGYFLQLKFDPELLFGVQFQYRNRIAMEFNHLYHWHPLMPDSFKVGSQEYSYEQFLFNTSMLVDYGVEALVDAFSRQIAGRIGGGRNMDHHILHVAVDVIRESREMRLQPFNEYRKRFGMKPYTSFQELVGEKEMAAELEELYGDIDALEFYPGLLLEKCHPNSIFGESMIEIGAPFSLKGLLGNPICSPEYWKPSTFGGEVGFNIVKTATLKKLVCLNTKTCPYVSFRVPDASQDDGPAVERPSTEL
Outline: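 Partially purified baculovirus-expressed human enzyme preincubated with compound, 2 mM phenol (5 min) then 1 μM hematin (5 min). Reaction in Tris-HCl pH 7.9 with 20 μM 1-[14C]arachidonate for 45 s at room temperature, acid-stopped; oxygenated products isolated on Sep-Pak and counted by scintillation.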

[5] = system: adjuvant-induced arthritis pain; experiment: adjuvant-induced arthritis pain model in the rat; format: in vivo; conditions: preliminary test at 0.1, 1.0, 10 and 30 mg/kg, read-out: doses at which significant and prolonged analgesia is obtained
Description: Compound (16) was also evaluated using an adjuvant-induced arthritis pain model in the rat, in which pain is assessed by eliciting a vocal response upon squeezing or flexing an inflamed ankle joint.

[6] = system: COX I; experiment: PGE2 production in freshly isolated human monocytes; format: cell-based; conditions: EIA, cells may be expressing COX II constitutively, read-out: COX I IC50, inhibition of PGE2 production
Description: as §1
Human monocytes 30 min incubation with Compound (16)
freshly isolated a) 10 min activation, A23187 + PMA
These cells may be expressing COX II
b) 30 min activation, A23187 + PMA
constitutively c) 10 min activation, 20 μM AA
d) 30 min activation, 20 μM AA
as §2

[7] = system: PGE2 levels in the air-pouch exudate; experiment: PGE2 in exudate of carrageenan-induced inflammation (air-pouch model) in rats; format: in vivo, rat; conditions: Rattus norvegicus; 0.1-30 mg/kg, relative to vehicle; read-out: IC50, inhibition of PGE2 levels in the exudate

In the case of `Cc1cc(Cc2ccc(=O)[nH]n2)n(C)c1C(=O)c1ccc(Cl)cc1` [Compound 16, 6-[1,4-dimethyl-5-(4chloro-benzoyl)-1H-pyrrol-2-ylmethyl]-2H-pyridazin-3-one], the IC50 ([1]; 30 min incubation, 10 min activation, 5 μM A23187, RIA determination of PGE2) is reported as 0.12 µM and 0.17 µM and 0.14 µM, the IC50 ([1]; 30 min incubation; a) 10 min activation with 5 μM A23187, EIA determination of PGE2) is reported as ≤ 0.1 µM and the IC50 ([1]; 30 min incubation; b) 10 min activation with 20 μM AA + FA-free BSA, EIA determination of PGE2) is reported as ~2.7 µM. For the same molecule, the “inhibition of phenylquinone-induced writhing” value ([2]; 100 mg/kg, in SSV) was 100%, the ED50 ([2]; Mus musculus, 1-100 mg/kg) was ~10 mg/kg and the “clinical signs, clinical chemistry, gross pathology or histopathology” value [3] was “No abnormalities were observed”. The IC50 [4] was > 1000 µM, the minimal effective dose [5] was ≥ 10 mg/kg and the IC50 ([6]; 30 min incubation; a) 10 min activation, A23187 + PMA) was 5.2 µM. For the same molecule, the IC50 ([6]; 30 min incubation; b) 30 min activation, A23187 + PMA) was 0.31 µM, the IC50 ([6]; 30 min incubation; c) 10 min activation, 20 μM AA) was 4.6 µM and the IC50 ([6]; 30 min incubation; d) 30 min activation, 20 μM AA) was > 10 µM. For the same molecule, the ED50 [7] was 0.7 to 2 mg/kg.
